Tests used:
[1] = system: human invasive MCF-7/6 mammary carcinoma cells; experiment: Chick heart invasion (CHI) assay with MCF-7/6 aggregates; assay type: cell-based; conditions: MCF7/6, 192 h, lowest concentration at which an anti-invasive effect (histological grade I or II) was observed, 8 days, read-out: Lowest active concentration
Method: Chick heart invasion assays were performed as described earlier (Bracke et al. 2014). Precultured heart fragments of 9-day-old chicken embryos were confronted with MCF-7/6 aggregates on top of a semi-solid agar at 37° C. overnight, after which the confronting pairs were cultured in suspension for 8 days at 37° C., 10% CO2 in presence or absence of a test compound (in duplo). This procedure can also be performed with aggregates of 4T1-Luc cells, for which the suspension culture of the confronting pairs is performed for 3.5 days. All compounds were evaluated at 1 μM and 100 nM; depending on the outcome higher or lower concentrations were subsequently evaluated. Upon fixation in Bouin-Hollande, the cultures were dehydrated and embedded in paraffin. Sections of the confrontation cultures were stained with hematoxylin-eosin are blinded and scored by a trained person (Bracke et al., 2014).
In the chick heart invasion assay cancer cells are confronted with a fragment of normal tissue, so as not to neglect the contribution of the host tissue in the micro-ecosystem that governs tumor behavior. As such, precultured heart tissue fragments (PHFs), dissected from 9-day-old chicken embryos, may be confronted with aggregates of human invasive MCF-7/6 mammary carcinoma cells or other cells in the presence of a certain concentration of a test compound. After eight days for MCF-7/6, or another period depending on the cell type, the interaction between the cancer cells and the PHF is evaluated histologically and classified along a 5-grades subjective scale (Bracke et al. 2014). Grades III and IV are typical for invasion, while grades 0, I and II correspond to absence of invasion. Compounds that inhibit invasion of confronting cancer cells i.e. from III/IV to 0/I/II, are determined as anti-invasive. Possible alternative assays generally known in the art are the type I collagen invasion assay, wound healing assay and the matrigel invasion assay.
The chick heart invasion (CHI) assay is a phenotypic assay that confronts precultured heart tissue fragments (PHFs, ‘normal tissue’), obtained from 9-day-old chicken embryos, with aggregates of human invasive MCF-7/6 mammary carcinoma cells (Bracke et al. 2014). In the control situation, the MCF-7/6 cells encircle, invade and destroy the PHF over an 8-day period. Invasion in this assay is defined as the progressive occupation and destruction of the PHF by the MCF-7/6 cells. Three-dimensional reconstruction of this interaction is obtained by microscopic analysis of all consecutive histological sections of the culture. The read-out is an invasion score according to a 5-grades histological scale.
The CHI closely reproduces the temporal, spatial and histological invasion patterns in man. The co-culture set-up probes for effects on both tumor cells and host tissue, and thus interrogates potential pharmacological targets in either interaction partner. Its use of histological evaluation allows discerning anti-invasive action from cytotoxicity or other effects.
We have submitted flavones B1-B4, flavanones B5-B8 and the intermediate 2′-hydroxychalcones A9, All and A12 to the chick heart invasion assay using MCF-7/6 aggregates. All compounds were evaluated at 1 μM and 100 nM; depending on the outcome higher or lower concentrations were subsequently evaluated. […] This table also includes CHI data on chalcones A1, A2 and A5.

[2] = system: 13B2 hTERT breast CAFs; experiment: AFM spheroid stiffness, 13B2 hTERT breast CAFs; assay type: cell-based, human; conditions: 48 h during spheroid formation; for Young's modulus / spheroid stiffness: 1 μM; for spheroid stiffness: 10 μM
Excerpt: (§1) It is well established that an increased tumor and ECM stiffness is associated with a negative prognosis as it promotes tumor growth, progression, therapy resistance, immunosuppression and metastasis. Stiffness is chiefly regulated by the action of the CAFs in the TME. Stiffness modulation is, therefore, a fitting read-out of activity in a screen for CAF modulators. To assess stiffness modulation, the stiffness of spheroids of CAF cells treated with test compounds was interrogated using atomic force microscopy (AFM) indentation and compared with untreated cells. AFM measurement of the stiffness (elasticity) of cells and spheroids is a technique well-known to those skilled in the art. AFM measures the force required to create a given deflection, this read-out is also known as the Young's modulus. AFM is widely used in biology and cancer research: altered physicochemical properties of live cells serve as a read-out of altered complex physiological processes.
(§2) U-shaped, 384-well ULA plates (cat. no. MS-9384UZ, S-bio) were seeded with a suspension of cell-specific culture media with cells. Cells were allowed to form spheroids for an appropriate time under treatment conditions before use in experiments. Cell culture dishes (cat. no. 734-2814, VWR) were filled with collagen gel and placed at 37° C. for an appropriate time to allow solidification. For each condition, spheroids were pooled in one cell culture dish. The medium was removed (stored at 37° C.) to promote attachment of the bottom of each spheroid to the collagen gel. The cell culture dishes were incubated at 37° C. After the incubation period, the stored medium was carefully (prevent detachment of spheroids) added to the dishes.
(§3) Mechanical measurements were performed using an atomic force microscope. To indent the spheroids an in-house made colloidal probe was used. Force curves were collected using an appropriate setpoint and probe speed (depending on the stiffness of the spheroids). On each spheroid multiple force curves were collected. Collected curves were then processed using the JPK DP software. Young's modulus was extracted from the force curves. All experiments were performed in biological triplicate.
(§4) To generate 3D cultures mimicking the complexity and pathophysiology of in vivo tumors, spheroids were used (cfr. point 4). Spheroids are considered to better simulate cellular heterogeneity, nutrient and oxygen gradients, cell-cell interactions, cell-matrix interactions, gene expression profiles, stromal interactions, therapeutic responses, multicellular resistance, drug penetration and anti-apoptotic signaling.

[3] = system: CAF03 glioblastoma CAFs; experiment: AFM spheroid stiffness, CAF03 glioblastoma CAFs; assay type: cell-based; conditions: 10 μM, 48 h
Excerpt: as §1, §2, §3, §4

[4] = system: HCA2 hTERT dermal fibroblasts; experiment: AFM spheroid stiffness, HCA2 hTERT dermal fibroblasts; assay type: cell-based; conditions: HCA2 hTERT normal dermal fibroblasts; 10 μM, 48 h
Method: (§5) Selectivity for CAFs with respect to normal fibroblasts and other cell types was assessed by performing an identical experiment with normal fibroblasts and other cell types, where compounds were considered selective for CAFs if they only modulate CAF stiffness.
as §2, §3, §4

[5] = system: MCF-7/6 breast cancer cells; experiment: AFM spheroid stiffness, MCF-7/6 breast cancer cells; assay type: cell-based, human; conditions: 10 μM, 48 h
Method: as §5, §2, §3, §4

[6] = system: primary glioblastoma (GBM) cells; experiment: AFM spheroid stiffness, primary glioblastoma cells; assay type: cell-based, human; conditions: 10 μM, 48 h
Method: as §5, §2, §3, §4

[7] = system: primary human atrial fibroblasts; experiment: AFM spheroid stiffness, primary human atrial fibroblasts; assay type: cell-based; conditions: 10 μM, 48 h
Method: as §5, §2, §3, §4

`COc1ccc(C(=O)/C=C/c2ccc(Cl)cc2)cc1` [Compound A2, 3-(4-Chlorophenyl)-1-(4-methoxyphenyl)prop2-en-1-one] gave a minimal effective concentration [1] of 0.01 µM.
`COc1ccc(C(=O)/C=C/c2ccc(F)cc2)cc1` [Compound A5, 3-(4-Fluorophenyl)-1-(4-methoxyphenyl)prop2-en-1-one] gave a minimal effective concentration [1] of 1 µM.
`O=C(/C=C/c1ccccc1)c1ccccc1` [Compound A8, 1,3-Diphenvlprop2-en-1-one] was tested, and the “Young's modulus / spheroid stiffness” value [2] was “did not have an effect”.
Work on `COc1cc(O)c(C(=O)/C=C/c2ccc(F)cc2)c(OC)c1OC` [Compound A10, 3-(4-Fluorophenyl)-1-(6-hydroxy-2,3,4-trimethoxyphenyl)prop-2-en-1-one] yielded a minimal effective concentration [1] of 0.01 µM.
Compound `COc1ccc(C(=O)/C=C/c2ccc(F)cc2)c(O)c1` [Compound A12, 3-(4-fluorophenyl)-1-(2-hydroxy-4-methoxyphenyl)prop-2-en-1-one] has a minimal effective concentration [1] of 1 µM.
Work on `COc1ccc(C(=O)/C=C/c2ccc(Cl)cc2)c(O)c1` [Compound A13, 3-(4-chlorophenyl)-1-(2-hydroxy-4-methoxyphenyl)prop-2-en-1-one] yielded a minimal effective concentration [1] of 0.1 µM.
In the case of `COc1ccc(C(=O)/C=C/c2ccc(F)cc2)cc1C(F)(F)F` [Compound A14, 3-(4-Fluorophenyl)-1-(4-methoxy-3-(trifluoromethyl)phenyl)prop-2-en-1-one], the “Young's modulus / spheroid stiffness” value [2] is reported as “decreased”.
Work on `COc1cc2c(=O)cc(-c3ccc(F)cc3)oc2c(OC)c1OC` [Compound B2, 2-(4-Fluorophenyl)-6,7,8-trimethoxy-4H-chromen-4-one] yielded a minimal effective concentration [1] of 10 µM.
`COc1ccc2c(=O)cc(-c3ccc(F)cc3)oc2c1` [Compound B3, 2-(4-Fluorophenyl)-7-methoxy-4H-chromen-4-one] was tested, and the minimal effective concentration [1] was 0.01 µM.
Work on `COc1ccc2c(=O)cc(-c3ccc(Cl)cc3)oc2c1` [Compound B4, 2-(4-Chlorophenyl)-7-methoxy-4H-chromen-4-one] yielded a minimal effective concentration [1] of 0.01 µM.
With `COc1cc2c(c(OC)c1OC)C(=O)CC(c1ccc(F)cc1)O2` (centres unmarked) [Compound B5, 2-(4-Fluorophenyl)-5,6,7-dimethoxychroman-4-one] the minimal effective concentration [1] was 0.1 µM.
`COc1cc2c(c(OC)c1OC)OC(c1ccc(F)cc1)CC2=O` (centres unmarked) [Compound B6, 2-(4-Fluorophenyl)-6,7,8-dimethoxychroman-4-one] gave a minimal effective concentration [1] of 100 µM.
Work on `COc1ccc2c(c1)OC(c1ccc(F)cc1)CC2=O` (centres unmarked) [Compound B7, 2-(4-Fluorophenvl)-7-methoxvchroman-4-one] yielded a minimal effective concentration [1] of 10 µM.
`COc1ccc2c(c1)OC(c1ccc(Cl)cc1)CC2=O` (centres unmarked) [Compound B8, 2-(4-Chlorophenyl)-7-methoxvchroman-4-one] gave a minimal effective concentration [1] of 0.1 µM.
`C[C@@H](N)[C@H]1CC[C@H](C(=O)Nc2ccncc2)CC1` [Compound Y-27632, Y-27632, reference compound] was tested, and the spheroid stiffness [3] was “active”, the spheroid stiffness [2] was “active” and the spheroid stiffness [4] was “reduced the stiffness”. The spheroid stiffness [5] was “reduced the stiffness”, the spheroid stiffness [6] was “reduced the stiffness” and the spheroid stiffness [7] was “reduced the stiffness”.
For `Cc1ccc2c(c1)C(=O)C1(O)CCN(c3ccccc3)C1=N2` (centres unmarked) [blebbistatin, reference compound], the spheroid stiffness [3] was “active”, the spheroid stiffness [2] was “active” and the spheroid stiffness [4] was “reduced the stiffness”. The spheroid stiffness [5] was “reduced the stiffness”, the spheroid stiffness [6] was “reduced the stiffness” and the spheroid stiffness [7] was “reduced the stiffness”.
For `C=C1[C@@H](C)[C@H]2[C@H](Cc3ccccc3)NC(=O)[C@]23[C@H](OC(C)=O)/C=C/[C@@](C)(O)C(=O)[C@@H](C)C/C=C/[C@H]3[C@@H]1O` [cytochalasin D, reference compound], the spheroid stiffness [3] was “active”, the spheroid stiffness [2] was “active” and the spheroid stiffness [4] was “reduced the stiffness”. For the same compound, the spheroid stiffness [5] was “reduced the stiffness”, the spheroid stiffness [6] was “reduced the stiffness” and the spheroid stiffness [7] was “reduced the stiffness”.
